Tested on: endometriotic-like cells
Assay: Estrogen (E2) production ability of endometriotic-like cells from androgens of adrenal origin, Estradiol EIA
Assay type: cell-based, human
Conditions: final concentration 1 mM, 48 hours, cells produced in the step (3)
Description: In this Experimental Example, the cells produced in the step (3) were confirmed for their ability to produce estradiol (E2), which was an estrogen. The cells (1×10^5 cells) produced in the step (3) were added to 1 ml of a low-carbon-source proliferation culture medium supplemented with bovine serum albumin (BSA) at 0.1% (v/v) in place of FBS, inoculated into a 12-well plate having a surface coated with collagen type I (derived from rat tail, BD Biosciences, Cat. No. 354236), and cultured for 24 hours at 37° C. in the presence of 5% CO2.
After that, A-dione (Tokyo Chemical Industry Co., Ltd.; androstenedione), DHEA (Tokyo Chemical Industry Co., Ltd.), or DHEA-sulfate (Tokyo Chemical Industry Co., Ltd.; DHEA-S, inactivated adrenal androgen), which was an androgen of adrenal origin, was added to the culture medium so that the final concentration became 1 mM, and the cells were further cultured for 48 hours. As a control (vehicle), the cells were cultured in the same manner as described above except that dimethylsulfoxide (DMSO), which was a solvent, was added in place of the androgen.
The concentration of E2 in the culture supernatant was measured by using Estradiol EIA kit (Cayman Chemical, Cat. No. 582251) according to the manual of the kit.

| SMILES | E2 production from the added androgen (concentration of E2 in the culture supernatant) |
| --- | --- |
| C[C@]12CCC(=O)C=C1CC[C@@H]1[C@@H]2CC[C@]2(C)C(=O)CC[C@@H]12 [A-dione, androstenedione] | produced E2 |
| C[C@]12CC[C@H](O)CC1=CC[C@@H]1[C@@H]2CC[C@]2(C)C(=O)CC[C@@H]12 [DHEA, dehydoepiandorosterone] | produced E2 |
| C[C@]12CC[C@H](OS(=O)(=O)O)CC1=CC[C@@H]1[C@@H]2CC[C@]2(C)C(=O)CC[C@@H]12 [DHEA-S, DHEA-sulfate] | did not produce E2 |
